Series [1] has as its target C-C chemokine receptor type 5 (Homo sapiens, UniProt P51681). Nature of the series: Inhibition of human CCR5 expressed in CHO cells assessed as inhibition of RANTES-stimulated [35S]GTPgammaS binding. Format: functional, cell-based. (Binding of GTPγS marks nucleotide exchange on a G protein.)
Series [2] deals with Human immunodeficiency virus 1. Nature of the series: Antiviral activity against R5 tropic HIV1 BaL infected in human PBMC. The settings on record: Human immunodeficiency virus 1, BaL. In kind it is functional, organism-based.
The next series concerns the target hERG (KCNH2) (Homo sapiens, UniProt Q12809). Nature of the series: Inhibition of human ERG at 1 uM.
Series [3] is described as follows: Cytotoxicity against human PBMC. Format: cell-based.

Sequence of hERG (KCNH2) (Q12809 whole entry): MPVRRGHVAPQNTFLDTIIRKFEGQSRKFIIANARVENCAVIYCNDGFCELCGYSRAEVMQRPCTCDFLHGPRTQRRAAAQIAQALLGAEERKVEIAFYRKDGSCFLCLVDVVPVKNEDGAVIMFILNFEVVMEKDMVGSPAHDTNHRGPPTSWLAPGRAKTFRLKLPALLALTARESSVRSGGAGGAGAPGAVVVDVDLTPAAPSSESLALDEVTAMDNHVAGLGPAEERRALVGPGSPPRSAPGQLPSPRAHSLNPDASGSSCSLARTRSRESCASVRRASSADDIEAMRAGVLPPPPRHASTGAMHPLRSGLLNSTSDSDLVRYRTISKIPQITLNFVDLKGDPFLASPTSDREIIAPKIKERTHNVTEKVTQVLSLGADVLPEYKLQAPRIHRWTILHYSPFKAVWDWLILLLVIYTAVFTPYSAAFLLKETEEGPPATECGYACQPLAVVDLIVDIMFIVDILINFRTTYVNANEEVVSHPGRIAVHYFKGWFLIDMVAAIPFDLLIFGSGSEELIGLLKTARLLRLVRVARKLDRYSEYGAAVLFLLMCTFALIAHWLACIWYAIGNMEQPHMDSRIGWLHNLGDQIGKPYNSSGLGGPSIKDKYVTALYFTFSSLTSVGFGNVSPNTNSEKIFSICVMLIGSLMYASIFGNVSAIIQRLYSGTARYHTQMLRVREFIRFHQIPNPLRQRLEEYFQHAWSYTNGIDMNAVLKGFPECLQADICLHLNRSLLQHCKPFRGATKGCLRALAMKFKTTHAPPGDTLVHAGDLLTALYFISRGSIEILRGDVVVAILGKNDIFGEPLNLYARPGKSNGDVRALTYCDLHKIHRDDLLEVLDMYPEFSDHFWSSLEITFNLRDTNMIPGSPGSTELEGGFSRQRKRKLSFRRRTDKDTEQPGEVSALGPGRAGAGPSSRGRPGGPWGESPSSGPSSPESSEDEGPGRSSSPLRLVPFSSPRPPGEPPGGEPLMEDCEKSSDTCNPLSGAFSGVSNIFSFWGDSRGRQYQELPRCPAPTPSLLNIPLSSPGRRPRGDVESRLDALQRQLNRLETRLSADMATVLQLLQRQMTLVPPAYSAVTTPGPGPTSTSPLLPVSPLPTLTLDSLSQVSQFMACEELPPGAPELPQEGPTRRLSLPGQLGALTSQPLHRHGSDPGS
Sequence of C-C chemokine receptor type 5 (P51681 whole entry): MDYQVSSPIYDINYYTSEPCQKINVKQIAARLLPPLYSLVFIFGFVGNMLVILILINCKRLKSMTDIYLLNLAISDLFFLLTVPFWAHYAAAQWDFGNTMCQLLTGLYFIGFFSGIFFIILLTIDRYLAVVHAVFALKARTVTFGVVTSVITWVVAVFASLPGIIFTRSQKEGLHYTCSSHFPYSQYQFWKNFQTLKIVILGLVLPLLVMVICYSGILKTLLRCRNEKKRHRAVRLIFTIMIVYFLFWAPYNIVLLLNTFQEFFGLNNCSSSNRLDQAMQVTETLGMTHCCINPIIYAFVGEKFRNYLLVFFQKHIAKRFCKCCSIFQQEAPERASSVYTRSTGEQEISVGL

`C=CCN(C(=O)OCc1ccc([N+](=O)[O-])cc1)C1CCN(C[C@H]2CN(C(=O)C3CCCC3)C[C@]2(O)c2ccc(OC)cc2)CC1`: in series [1], the IC50 is 318 nM. This compound also yielded an EC50 in series [2] greater than 100 nM.
On to `C=CCN(C(=O)OCc1ccc([N+](=O)[O-])cc1)C1CCN(C[C@H]2CN(C(=O)C3CCCC3)C[C@]2(O)c2ccc(F)cc2)CC1`, for which the IC50 in series [1] was found to be 30 nM. This compound showed an EC50 in series [2] greater than 100 nM.
Take `C=CCN(C(=O)OCc1ccc([N+](=O)[O-])cc1)C1CCN(C[C@H]2CN(C(=O)C3CCCC3)C[C@]2(O)c2cccc(F)c2)CC1`: in series [1], the IC50 was found to be 8.85 nM. Also, the EC50 in series [2] is less than 0.4 nM.
`C=CCN(C(=O)NCc1ccc(C(F)(F)F)cc1)C1CCN(C[C@H]2CN(C(=O)C3CCCC3)C[C@]2(O)c2ccc(F)cc2)CC1`: in series [1], the IC50 came out at 38.3 nM. In series [2], the half-maximal effective concentration (EC50) is 20 nM.
In the case of `C=CCN(C(=O)NCc1ccc(C(F)(F)F)cc1)C1CCN(C[C@H]2CN(C(=O)C3CCCC3)C[C@]2(O)c2cccc(F)c2)CC1`, the IC50 in series [1] came out at 1.38 nM. In series [2], the EC50 amounted to 6 nM.
In the same order, the values of `C=CCN(C(=O)Cc1ccc(S(=O)(=O)NC)cc1)C1CCN(C[C@H]2CN(C(=O)C3CCCC3)C[C@]2(O)c2ccc(F)cc2)CC1` are 11.2 nM and greater than 100 nM.
In the same order, the values of `C=CCN(C(=O)Cc1ccc(S(=O)(=O)NC)cc1)C1CCN(C[C@H]2CN(C(=O)C3CCCC3)C[C@]2(O)c2cccc(F)c2)CC1` are 2.98 nM and 4.5 nM.
For `C=CCN(C(=O)NCc1ccc(C(F)(F)F)cc1)[C@H]1C[C@H]2CC[C@@H](C1)N2C[C@H]1CN(C(=O)C2CCCC2)C[C@]1(O)c1cccc(F)c1`, in series [1], the IC50 was determined as 6.77 nM. In series [2], this compound registered an EC50 of less than 0.005 nM. Further, testing at 1 µM at hERG (KCNH2) gave an inhibition of 89.5%. This compound also returned a CC50 in series [3] of 12500 nM.
For the compound `C=CCN(C(=O)NCc1ccc(S(=O)(=O)N(C)C)cc1)[C@H]1C[C@H]2CC[C@@H](C1)N2C[C@H]1CN(C(=O)C2CCCC2)C[C@]1(O)c1cccc(F)c1`, the IC50 in series [1] was determined as 11.4 nM. In series [2], the EC50 is 0.0055 nM. Also, the inhibition at 1 µM on hERG (KCNH2) was 31.3%. Also, in series [3], the CC50 was determined as 55000 nM.
As to `C=CCN(C(=O)NCc1ccc(F)cc1)[C@H]1C[C@H]2CC[C@@H](C1)N2C[C@H]1CN(C(=O)C2CCCC2)C[C@]1(O)c1cccc(F)c1`, in series [1], the IC50 amounted to 30 nM. Also, a half-maximal response in series [2] (EC50) required 1.75 nM. In series [3], this compound yielded a CC50 of 42000 nM.
Take `C=CCN(C(=O)NCc1ccc(C(F)(F)F)cc1)[C@@H]1C[C@H]2CC[C@@H](C1)N2C[C@H]1CN(C(=O)C2CCCC2)C[C@]1(O)c1cccc(F)c1`: in series [1], the IC50 amounted to 14.3 nM. For the same compound, the EC50 in series [2] was greater than 100 nM. This compound also gave an inhibition at 1 µM at hERG (KCNH2) of 88.6%. This compound registered a CC50 in series [3] of 103000 nM.
In the case of `C=CCN(C(=O)OCc1ccc([N+](=O)[O-])cc1)C1CCN(C[C@H]2CN(C(=O)C3CCCC3)C[C@]2(O)c2ccccc2)CC1` [NIFEVIROC], in series [2], the EC50 was less than 0.4 nM.

As a reminder, the IC50 is the concentration needed to halve the response being measured. As a reminder, the EC50 is the concentration needed to bring the measured effect to its halfway point. For orientation: inhibition means the relative decrease from the control value, in per cent. Usually CC50 stands for the concentration at which the toxic effect on the cells reaches its halfway point. Lower therefore signals harm at low concentration.

The values are drawn from ChEMBL document CHEMBL1221291, “Studies on the structure-activity relationship of 1,3,3,4-tetra-substituted pyrrolidine embodied CCR5 receptor antagonists. Part 2: Discovery of highly potent anti-HIV agents” (Bioorg Med Chem Lett, 2010).
